The text below walks through data of PubChem BioAssay (NCI).

Some test systems named below: HOP-92 NSCLC; NCI/ADR-RES ovarian; MDA-MB-435; MALME-3M melanoma; MOLT-4 leukemia; UACC-62 melanoma; SK-MEL-5 melanoma; T-47D breast; HS 578T breast; NCI-H226 lung.
What all share (test): growth of human tumour cells (NCI), 48 h

Where “and” joins values, the source holds several entries; their conditions need not be identical. Equal values may be shown once.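 Cultured in 96-well plates, cells were exposed to test compound for 48 hours across five concentrations. GI50 is the concentration that inhibits growth by half. Definition used: TGI = concentration required for complete inhibition of growth.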

As to `O=C(Oc1c(Cl)c(Cl)c(Cl)c(Cl)c1Cl)C1CCCN1C(=O)OCc1ccccc1` (stereo not drawn), the GI50 in the assay on HOP-92 NSCLC was 1.99 µM; in the assay on NCI/ADR-RES ovarian it was 3.15 µM; with MDA-MB-435, 4.11 µM; in the assay with MALME-3M melanoma, 3.62 µM; in the assay with MOLT-4 leukemia, 3.1 µM; in the assay on UACC-62 melanoma it was 3.24 µM. Further, the GI50 in the assay on SK-MEL-5 melanoma was 2.26 µM; in the assay with T-47D breast it was 2.79 µM; in the assay on HS 578T breast it was 2.92 µM; with NCI-H226 lung it was 3.82 µM. Besides, the TGI amounted to 6.1 µM in the assay on HOP-92 NSCLC; 11.2 µM in the assay with NCI/ADR-RES ovarian; 16.6 µM in the assay with MDA-MB-435; 11.4 µM in the assay with MALME-3M melanoma; 9.07 µM in the assay with MOLT-4 leukemia; 12.6 µM in the assay on UACC-62 melanoma. Further, the TGI in the assay on SK-MEL-5 melanoma came to 5.74 µM; with T-47D breast, 11.3 µM; with HS 578T breast it was 10.4 µM; in the assay with NCI-H226 lung, 21.7 µM.

In the case of `O=CCC(O)C(O)C(O)CO` (stereo not drawn), the GI50 was 1.74 µM in the assay on HOP-92 NSCLC; more than 100 µM in the assay on NCI/ADR-RES ovarian; more than 100 µM in the assay with MDA-MB-435; more than 100 µM in the assay with MALME-3M melanoma; more than 100 µM with MOLT-4 leukemia; more than 100 µM with UACC-62 melanoma. In addition, the GI50 with SK-MEL-5 melanoma, in the assay with T-47D breast, in the assay with HS 578T breast and with NCI-H226 lung was more than 100 µM in each case. Moreover, the TGI in the assay on HOP-92 NSCLC, in the assay on NCI/ADR-RES ovarian, in the assay on MDA-MB-435, with MALME-3M melanoma, in the assay with MOLT-4 leukemia and in the assay with UACC-62 melanoma was more than 100 µM throughout. Besides, the TGI with SK-MEL-5 melanoma, in the assay on T-47D breast, with HS 578T breast and in the assay on NCI-H226 lung was more than 100 µM throughout.

Take `CC[C@H](C)C(=O)O[C@H]1C[C@@H](C)C=C2C=C[C@H](C)[C@H](CC[C@@H]3C[C@@H](O)CC(=O)O3)[C@H]21`: the GI50 was 0.172 µM and 0.102 µM in the assay on HOP-92 NSCLC; 2.63 µM and 2.95 µM in the assay with NCI/ADR-RES ovarian; 20.2 µM and 15 µM with MDA-MB-435; 14.1 µM and 15.2 µM with MALME-3M melanoma; 49.2 µM and 21.4 µM in the assay on MOLT-4 leukemia; 2.83 µM and 2.59 µM in the assay with UACC-62 melanoma. In addition, the GI50 was 10.7 µM and 2.97 µM in the assay on SK-MEL-5 melanoma; 32.5 µM and 19.6 µM in the assay on T-47D breast; 5.08 µM and 5.36 µM in the assay with HS 578T breast; 10.1 µM and 6.22 µM in the assay with NCI-H226 lung. Further, the TGI is 0.649 µM and 0.657 µM and 0.141 µM in the assay with HOP-92 NSCLC; more than 100 µM with NCI/ADR-RES ovarian; more than 100 µM with MDA-MB-435; > 100 µM and 31.6 µM and > 30 µM with MALME-3M melanoma; > 100 µM and 53.4 µM and > 30 µM with MOLT-4 leukemia; 18.9 µM and 17.2 µM and > 30 µM in the assay on UACC-62 melanoma. Moreover, the TGI is > 100 µM and 10.7 µM and 16.1 µM in the assay with SK-MEL-5 melanoma; more than 100 µM in the assay with T-47D breast; more than 100 µM in the assay on HS 578T breast; 54.7 µM and > 51 µM and > 30 µM with NCI-H226 lung.

`COc1ccc(-n2nc(C(=O)NCC(=O)Nc3nc4cc(OC)ccc4s3)c3ccccc3c2=O)cc1`: the GI50 was 0.572 µM in the assay on HOP-92 NSCLC; 1.35 µM with NCI/ADR-RES ovarian; 0.641 µM with MDA-MB-435; 0.589 µM in the assay with MALME-3M melanoma; more than 100 µM in the assay with MOLT-4 leukemia; 1.76 µM in the assay with UACC-62 melanoma. Also, the GI50 was 1.55 µM in the assay on SK-MEL-5 melanoma, 0.927 µM in the assay with T-47D breast, 2.54 µM in the assay with HS 578T breast and 1.48 µM in the assay with NCI-H226 lung. The TGI in the assay with HOP-92 NSCLC was 1.68 µM; with MDA-MB-435, 14.3 µM; in the assay on MALME-3M melanoma, 2.8 µM; with MOLT-4 leukemia it was more than 100 µM; with SK-MEL-5 melanoma it was more than 42.7 µM; with T-47D breast, 5.81 µM. In addition, the TGI is more than 100 µM with HS 578T breast and 7.5 µM with NCI-H226 lung.

Regarding `CCCCc1n(Cc2ccc3ccccc3n2)cc[n+]1Cc1ccc2ccccc2c1`, the GI50 was 0.22 µM with HOP-92 NSCLC; 24.2 µM with NCI/ADR-RES ovarian; 0.661 µM with MDA-MB-435; 0.643 µM with MALME-3M melanoma; 1.06 µM in the assay with MOLT-4 leukemia; 0.579 µM with UACC-62 melanoma. In addition, the GI50 was 0.559 µM in the assay on SK-MEL-5 melanoma, 0.337 µM in the assay with T-47D breast, 1.33 µM in the assay with HS 578T breast and 1 µM with NCI-H226 lung. Besides, the TGI was 1.11 µM in the assay on HOP-92 NSCLC; more than 100 µM in the assay on NCI/ADR-RES ovarian; 1.9 µM in the assay with MDA-MB-435; 2.21 µM in the assay on MALME-3M melanoma; 3.61 µM with MOLT-4 leukemia; 1.86 µM in the assay with UACC-62 melanoma. Besides, the TGI with SK-MEL-5 melanoma stood at 1.33 µM; with T-47D breast it was 2.57 µM; in the assay with HS 578T breast, 4.07 µM; with NCI-H226 lung it was 6.12 µM.

In the case of `O=C1c2ccccc2-c2c1c1ccc([N+](=O)[O-])cc1c(=O)n2CCN1CCOCC1`, the GI50 in the assay with HOP-92 NSCLC was 26.2 µM; in the assay on NCI/ADR-RES ovarian it was more than 100 µM; in the assay on MDA-MB-435, more than 100 µM; in the assay with MALME-3M melanoma, more than 100 µM; in the assay with MOLT-4 leukemia it was 48.8 µM; with UACC-62 melanoma it was 82.7 µM. The GI50 with SK-MEL-5 melanoma was more than 100 µM; in the assay on T-47D breast it was 78.4 µM; in the assay with HS 578T breast it was more than 100 µM; with NCI-H226 lung, more than 100 µM. Moreover, the TGI in the assay with HOP-92 NSCLC, with NCI/ADR-RES ovarian, with MDA-MB-435, in the assay with MALME-3M melanoma, in the assay with MOLT-4 leukemia and in the assay on UACC-62 melanoma was more than 100 µM each time. For the same molecule, the TGI with SK-MEL-5 melanoma, with T-47D breast, with HS 578T breast and in the assay on NCI-H226 lung was more than 100 µM in each case.

For `O=C1c2ccccc2-c2c1c1ccc3ccccc3c1n2-c1ccccc1`, the GI50 in the assay on HOP-92 NSCLC is 16 µM; in the assay with NCI/ADR-RES ovarian, 20.7 µM; with MDA-MB-435, 97.9 µM; in the assay with MALME-3M melanoma it was 28.1 µM; in the assay with MOLT-4 leukemia, more than 100 µM; with UACC-62 melanoma, 20.4 µM. Also, the GI50 in the assay with SK-MEL-5 melanoma is 16.5 µM; with T-47D breast, 12.7 µM; in the assay on HS 578T breast it was 18 µM; in the assay on NCI-H226 lung, 27.9 µM. Moreover, the TGI with HOP-92 NSCLC is 52.1 µM; in the assay on NCI/ADR-RES ovarian, 58.5 µM; with MDA-MB-435 it was more than 100 µM; in the assay with MALME-3M melanoma, 66.2 µM; in the assay with MOLT-4 leukemia, more than 100 µM; in the assay with UACC-62 melanoma it was 44.2 µM. The TGI in the assay with SK-MEL-5 melanoma worked out at 50.1 µM; in the assay on T-47D breast, 41.5 µM; in the assay with HS 578T breast it was 39.2 µM; in the assay on NCI-H226 lung it was 75.2 µM.

As to `COC(=O)C[C@@H]1CC=CC(=O)/C1=C(O)/C=C/c1ccccc1`, the GI50 is 1.33 µM in the assay with HOP-92 NSCLC; 0.308 µM in the assay on NCI/ADR-RES ovarian; 0.357 µM in the assay with MDA-MB-435; 1.56 µM in the assay with MALME-3M melanoma; 1.68 µM in the assay on MOLT-4 leukemia; 1.42 µM in the assay on UACC-62 melanoma. Besides, the GI50 in the assay with SK-MEL-5 melanoma was 1.41 µM; in the assay with T-47D breast, 0.549 µM; with HS 578T breast, 3.49 µM; with NCI-H226 lung, 2.05 µM. The TGI in the assay with HOP-92 NSCLC is 2.82 µM; in the assay on NCI/ADR-RES ovarian, 1.97 µM; with MDA-MB-435 it was 1.41 µM; with MALME-3M melanoma, 3.33 µM; with MOLT-4 leukemia it was 5.46 µM; in the assay with UACC-62 melanoma it was 3.98 µM. Also, the TGI with SK-MEL-5 melanoma was 2.79 µM; in the assay with T-47D breast, 2.66 µM; in the assay on HS 578T breast it was more than 49.2 µM; with NCI-H226 lung it was 7.55 µM.
